{
  "source": "patent US20220026411A1",
  "about": "“ANALYTICAL METHODS AND ARRAYS FOR USE IN THE SAME” (SENZAGEN AB, priority 2019, published 2022)",
  "key": {"[1]": {"details": "cited from earlier work; for True group: true group belonging of external test chemicals; for Function in study: training data set, as defined by available literature and expert consensus"}, "SenzaCell [2]": {"tested_on": "SenzaCell", "assay": "GARDair assay: gene expression signature (GRPS, 28 genes) of chemically exposed DC-like cells, SVM classification", "details": "finalized GARDair prediction model; RS if mean SVM decision value (n=3) > 0; 24 h exposure at GARD input concentration", "description": "(§1) All exposures were performed in repeated triplicate experiments in a controlled setting, thus generating a coherent dataset with high statistical power optimized for subsequent biomarker discovery.\n(§2) A prediction model was trained and frozen, based on a Support Vector Machine (SVM), using the samples of the training data set with a binary “function in study” (respiratory sensitizer/non-respiratory sensitizer) as the dependent variable, and the gene expression values of the GRPS as the independent variables (i.e. predictors), see also Table 4.\n(§3) Having established an optimized prediction model and associated protocols, the assay was challenged with two sets of external samples, referred to as test data sets.\n(§4) The human myeloid leukemia-derived cell line SenzaCell (available through ATCC), acting as an in vitro model of human Dendritic Cell (DC), is maintained in a-MEM (Thermo Scientific Hyclone, Logan, Utah) supplemented with 20% (volume/volume) fetal calf serum (Life Technologies, Carlsbad, Calif.) and 40 ng/ml recombinant human Granulocyte Macrophage Colony Stimulating Factor (rhGM-CSF) (Miltenyi Biotec, Germany). A media change during expansion is performed every 3-4 days. Working stocks of cultures are grown for a maximum of 16 passages or two months after thawing. For chemical stimulation of cells, exposed cells are incubated for 24 h at 37° C., 5% CO2 and 95% humidity.\n(§5) Some Test Substances were poorly dissolved in cell media; therefore, the maximum soluble concentration was assessed as well. The Test Substance that was to be tested was titrated to concentrations ranging from 1 μM to the maximum soluble concentration in cell media. For freely soluble Test Substances, 500 μM was set as the upper limit of the titration range. For Test Substances dissolved in DMSO, the in-well concentration of DMSO was 0.1%. After incubation for 24 h at 37° C., 5% CO2 and 95% humidity, harvested cells were stained with the viability marker Propidium Iodide (PI) (BD Bioscience, USA) and analyzed by flow cytometry. PI-negative cells were defined as viable, and the relative viability of cells stimulated with each concentration in the titration range was calculated as\n(§6) For non-toxic Test Substances, a concentration of 500 μM was used if possible. For non-toxic Test Substances that were insoluble at 500 μM in cell media, the highest soluble concentration was used. Whichever of these three criteria was met, only one concentration will be used for gene expression analysis. The concentration to be used for any given chemical was termed the ‘GARD input concentration’.\n(§7) Once the GARD input concentration for Test Substances to be assayed was established, the cells were stimulated again as described above, this time only using the GARD input concentration. All assessments of Test Substances and Benchmark Controls were assayed in biological triplicates, performed at different time-points and using different cell cultures. After incubation for 24 h at 37° C., 5% CO2 and 95% humidity, cell culture was lysed in TRlzol reagent (Life Technologies) and stored at −20° C. until RNA was extracted. In parallel, a small sample of stimulated cells was taken for PI staining and analysis with flow cytometry, to ensure the expected relative viability of stimulated cells was reached."}, "SenzaCell [3]": {"tested_on": "SenzaCell", "description": "as §1, §2, §3, §4, §5, §6, §7"}},
  "note": "Like-named read-outs stand apart in the source and are kept apart here.",
  "data": [
    {"smiles": "Sc1nc2ccccc2s1", "note": "[2-Mercaptobenzothiazole]", "values": [
      {"measurement": "True group", "setting": "[1]", "value": "NRS"}
    ]},
    {"smiles": "Nc1ccccc1O", "note": "[2-aminophenol]", "values": [
      {"measurement": "Function in study", "setting": "[1]", "value": "SS/NRS"}
    ]},
    {"smiles": "O=C(O)c1ccc(O)cc1", "note": "[4-Hydroxybenzoic acid]", "values": [
      {"measurement": "True group", "setting": "[1]", "value": "NRS"},
      {"measurement": "Prediction Test set 1", "setting": "SenzaCell [2]", "value": "NRS"}
    ]},
    {"smiles": "O=Cc1ccccc1", "note": "[Benzaldehyde]", "values": [
      {"measurement": "Prediction Test set 1", "setting": "SenzaCell [2]", "value": "NRS"}
    ]},
    {"smiles": "OCC=Cc1ccccc1", "note": "[Cinnamyl alcohol]", "values": [
      {"measurement": "True group", "setting": "[1]", "value": "NRS"},
      {"measurement": "Prediction Test set 1", "setting": "SenzaCell [2]", "value": "NRS"}
    ]},
    {"smiles": "C[S+](C)[O-]", "note": "[DMSO]", "values": [
      {"measurement": "True group", "setting": "[1]", "value": "NRS"},
      {"measurement": "Prediction Test set 2", "setting": "SenzaCell [2]", "value": "NRS"}
    ]},
    {"smiles": "O=[N+]([O-])c1ccc(Cl)c([N+](=O)[O-])c1", "note": "[DNCB]", "values": [
      {"measurement": "True group", "setting": "[1]", "value": "NRS"},
      {"measurement": "Prediction Test set 1", "setting": "SenzaCell [2]", "value": "NRS"},
      {"measurement": "Prediction Test set 2", "setting": "SenzaCell [2]", "value": "NRS"}
    ]},
    {"smiles": "CCOC(=O)c1ccccc1C(=O)OCC", "note": "[Diethyl phthalate]", "values": [
      {"measurement": "True group", "setting": "[1]", "value": "NRS"},
      {"measurement": "Prediction Test set 1", "setting": "SenzaCell [2]", "value": "NRS"}
    ]},
    {"smiles": "C=CCc1ccc(O)c(OC)c1", "note": "[Eugenol]", "values": [
      {"measurement": "True group", "setting": "[1]", "value": "NRS"},
      {"measurement": "Prediction Test set 1", "setting": "SenzaCell [2]", "value": "NRS"}
    ]},
    {"smiles": "OCC(O)CO", "note": "[Glycerol]", "values": [
      {"measurement": "Prediction Test set 1", "setting": "SenzaCell [2]", "value": "NRS"}
    ]},
    {"smiles": "CC=Cc1ccc(O)c(OC)c1", "note": "[Isoeugenol]", "values": [
      {"measurement": "True group", "setting": "[1]", "value": "NRS"},
      {"measurement": "Prediction Test set 1", "setting": "SenzaCell [2]", "value": "NRS"}
    ]},
    {"smiles": "CCCCCCCC(=O)O", "note": "[Octanoic acid]", "values": [
      {"measurement": "True group", "setting": "[1]", "value": "NRS"},
      {"measurement": "Prediction Test set 1", "setting": "SenzaCell [2]", "value": "NRS"}
    ]},
    {"smiles": "Nc1ccc(N)cc1", "note": "[PPD]", "values": [
      {"measurement": "True group", "setting": "[1]", "value": "NRS"},
      {"measurement": "Prediction Test set 1", "setting": "SenzaCell [2]", "value": "NRS"},
      {"measurement": "Prediction Test set 2", "setting": "SenzaCell [2]", "value": "NRS"}
    ]},
    {"smiles": "Oc1ccccc1", "note": "[Phenol]", "values": [
      {"measurement": "Prediction Test set 1", "setting": "SenzaCell [3]", "value": "NRS"}
    ]},
    {"smiles": "Oc1cccc(O)c1", "note": "[Resorcinol]", "values": [
      {"measurement": "Prediction Test set 1", "setting": "SenzaCell [2]", "value": "NRS"}
    ]},
    {"smiles": "CCCCCCCCCCCCOS(=O)(=O)[O-].[Na+]", "note": "[SDS]", "values": [
      {"measurement": "True group", "setting": "[1]", "value": "NRS"},
      {"measurement": "Prediction Test set 1", "setting": "SenzaCell [2]", "value": "NRS"}
    ]},
    {"smiles": "O=C(O)c1ccccc1O", "note": "[Salicylic acid]", "values": [
      {"measurement": "True group", "setting": "[1]", "value": "NRS"}
    ]},
    {"smiles": "Clc1ccccc1", "note": "[chlorobenzene]", "values": [
      {"measurement": "Prediction Test set 2", "setting": "SenzaCell [2]", "value": "NRS"}
    ]},
    {"smiles": "CCCCCCC(C=O)=Cc1ccccc1", "note": "[hexylcinnamic aldehyde]", "values": [
      {"measurement": "Function in study", "setting": "[1]", "value": "SS/NRS"}
    ]},
    {"smiles": "CC1(C)S[C@@H]2[C@H](NC(=O)Cc3ccccc3)C(=O)N2[C@H]1C(=O)O", "note": "[penicillin G]", "values": [
      {"measurement": "Function in study", "setting": "[1]", "value": "SS/NRS"}
    ]},
    {"smiles": "[K+].[K+].[O]=[Cr](=[O])([O-])[O][Cr](=[O])(=[O])[O-]", "note": "[potassium dichromate]", "values": [
      {"measurement": "Function in study", "setting": "[1]", "value": "SS/NRS"}
    ]}
  ]
}
